IC50 data for one compound are collected here from paper PMC9913023, “Repositioning linifanib as a potent anti-necroptosis agent for sepsis” (Cell Death Discovery, 2023).

The target of this assay is T1, RIPK1 (receptor-interacting serine/threonine-protein kinase 1) (Homo sapiens, UniProt Q13546).
T1 sequence (Q13546 1-671): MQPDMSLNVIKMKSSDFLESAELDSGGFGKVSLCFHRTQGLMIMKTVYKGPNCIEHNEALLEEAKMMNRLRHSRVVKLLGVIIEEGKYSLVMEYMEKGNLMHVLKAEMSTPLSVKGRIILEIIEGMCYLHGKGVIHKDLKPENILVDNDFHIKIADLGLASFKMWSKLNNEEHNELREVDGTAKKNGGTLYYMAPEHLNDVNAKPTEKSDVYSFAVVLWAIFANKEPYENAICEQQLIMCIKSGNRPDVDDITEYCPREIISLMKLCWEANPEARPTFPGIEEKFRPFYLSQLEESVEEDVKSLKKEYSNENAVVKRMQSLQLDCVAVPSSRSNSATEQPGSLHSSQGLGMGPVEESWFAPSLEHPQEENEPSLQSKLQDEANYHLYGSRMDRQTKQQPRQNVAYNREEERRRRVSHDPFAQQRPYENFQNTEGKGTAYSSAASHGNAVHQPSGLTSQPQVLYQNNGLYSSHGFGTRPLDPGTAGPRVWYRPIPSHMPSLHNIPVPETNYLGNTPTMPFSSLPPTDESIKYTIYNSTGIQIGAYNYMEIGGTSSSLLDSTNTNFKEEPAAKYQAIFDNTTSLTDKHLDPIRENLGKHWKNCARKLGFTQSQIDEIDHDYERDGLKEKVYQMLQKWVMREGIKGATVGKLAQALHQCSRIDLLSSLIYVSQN
Put plainly: ADP-Glo kinase assay with recombinant human RIPK1 ([…]). In kind it is biochemical.

As a reminder, the IC50 is the concentration that inhibits the measured activity by half. For the compound `Cc1ccc(F)c(NC(=O)Nc2ccc(-c3cccc4[nH]nc(N)c34)cc2)c1` [linifanib], the IC50 amounted to 0.67 µM.
